Results on one compound are retold here after patent publication US20230414593A1, “EZH2 INHIBITION THERAPIES FOR THE TREATMENT OF ANDROGEN RECEPTOR MUTATED PROSTATE CANCERS” (Constellation Pharmaceuticals, Inc, priority 2020, published 2023).

The assay has as its system LNCaP-FGC tumor cells. The assay can be described thus: Tumor growth inhibition in prostate cancer LNCaP model with AR mutation H875Y. It is filed as in vivo, mouse. The following applies: 75 mg/kg orally once daily, LNCaP-FGC subcutaneous tumors, Cmp. 1 compared with Cmp. 2, FIG. 2. How it is done:
(R)-7-chloro-2-((1r,4R)-4-(3-methoxyazetidin-1-yl)cyclohexyl)-2,4-dimethyl-N-((6-methyl-4-(methylthio)-2-oxo-1,2-dihydropyridin-3-yl)methyl)benzo[d][1,3]dioxole-5-carboxamide and R—N-((4-methoxy-6-methyl-2-oxo-1,2-dihydropyridin-3-yl)methyl)-2-methyl-1-(1-(1-(2,2,2-trifluoroethyl)piperidin-4-yl)ethyl)-1H-indole-3-carboxamide were examined in a prostate cancer LNCaP Model with AR mutation H875Y.
A fixed dose of 75 mg/kg was used for both compounds. Each mouse was inoculated subcutaneously at the right flank with LNCaP-FGC tumor cells (10×10^6) in 0.1 ml of PBS mixed with RPMI-1640:Matrigel (50:50) for tumor development. The treatments started when the average tumor volume reached approximately 158 mm^3. The test articles were administered orally once daily. The tumor size was used for the calculation of tumor growth inhibition (TGI)=[1−(T1−T0)/(C1−C0)]×100, where C1=mean tumor volume of control mice at time t, T1=mean tumor volume of treated mice at time t, C0=mean tumor volume of control mice at time 0, and T0=mean tumor volume of treated mice at time 0].

Regarding `COC1CN([C@H]2CC[C@H]([C@@]3(C)Oc4c(Cl)cc(C(=O)NCc5c(SC)cc(C)[nH]c5=O)c(C)c4O3)CC2)C1` [Cmp. 1, (R)-7-chloro-2-((1r,4R)-4-(3-methoxyazetidin-1-yl)cyclohexyl)-2,4-dimethyl-N-((6-methyl-4-(methylthio)-2-oxo-1,2-dihydropyridin-3-yl)methyl)benzo[d][1,3]dioxole-5-carboxamide], the “tumor growth inhibition (TGI), relative tumor volume % reduction” value is “more efficacious at tumor growth inhibition”. Also, the “tumor growth inhibition (TGI), relative tumor volume % reduction” value (listed as (R)-7-chloro-2-(1r,4R)-4-(3-methoxyazetidin-1-yl)cyclohexyl)-2,4-dimethyl-N-((6)) is given as “more efficacious”.
